According to article PMC10310851 (Signal Transduction and Targeted Therapy, 2023):
Like-named read-outs stand apart in the source and are kept apart here. Blank lines part the entries; values can stand above or below the compound they belong to.

Key:
[1] = test system: ROS1 fusion-positive NSCLC; details: cited from earlier work
[2] = test system: NSCLC with ROS1 rearrangements; set-up: method as in PMID 28520527; details: cited from earlier work
[3] = test system: ROS1-positive advanced NSCLC; set-up: method as in PMID 29596029; details: cited from earlier work
[4] = test system: Lung cancer cell NCI-H2228; assay: Growth inhibition of cancer cell lines: NCI-H2228; format: cell-based; details: Homo sapiens
[5] = test system: Gastric cancer cell SNU-5; assay: Growth inhibition of cancer cell lines: SNU-5; format: cell-based; details: Homo sapiens
ROS1-rearranged NSCLC [6] = test system: ROS1-rearranged NSCLC; set-up: method as in PMID 34511132; details: first-line, cited from earlier work
[7] = set-up: method as in PMID 31751012; details: cited from earlier work
[8] = set-up: method as in PMID 25264305; details: cited from earlier work
[9] = test system: Lung cancer cell NCI-H3122; assay: Growth inhibition of cancer cell lines: NCI-H3122; format: cell-based; details: Homo sapiens
ROS1-rearranged NSCLC [10] = test system: ROS1-rearranged NSCLC; set-up: method as in PMID 31416808; details: 2/6, METROS trial ref 13; cited from earlier work
[11] = no radiotherapy within the preceding 6 months ref 21
[12] = radiotherapy within the preceding 6 months ref 21

SMILES: CN1CCN(c2ccc(C(=O)Nc3n[nH]c4ccc(Cc5cc(F)cc(F)c5)cc34)c(NC3CCOCC3)c2)CC1 [entrectinib]
DCR [1]: 75.8%
Intracranial ORR [1]: 79.2%
Median PFS [1]: 15.7 months
Median intracranial PFS ([1]; measurable central nervous system lesions at baseline ref 21): 12.0 months
Intracranial ORR [1, 11]: 46.2%
Intracranial PFS [1, 11]: 8.8 months
ORR ([1]; overall patient population ref 21): 67.1%
ORR ([1]; patients who had brain metastases at baseline ref 21): 62.5%
ORR ([1]; patients with CD74-ROS1 fusions ref 21): 72.9%
Intracranial ORR [1, 12]: 60%
Intracranial PFS [1, 12]: 16.1 months

SMILES: Cc1cc(Nc2ncc(Cl)c(Nc3ccccc3S(=O)(=O)C(C)C)n2)c(OC(C)C)cc1C1CCNCC1 [ceritinib]
Intracranial ORR [2]: 29%

IC50 [4]: 358 nM
IC50 [5]: 29.1 nM
IC50 [9]: 214 nM
SMILES: C[C@@H](Oc1cc(-c2cnn(C3CCNCC3)c2)cnc1N)c1c(Cl)ccc(F)c1Cl [crizotinib]
ORR by IRC ([3]; OO 12-01 study ref 15): 71.7%
DCR [3]: 88.2%
Median PFS [3]: 15.9 months
Rate of drug dose interruptions due to TRAEs [3]: 22.8%
Median PFS (ROS1-rearranged NSCLC [6]; non-CD74-ROS1 fusions ref 27): 21.0 months
Median PFS (ROS1-rearranged NSCLC [6]; tumor harboring CD74-ROS1 ref 27): 17.0 months
Any grade elevated ALT [7]: 14%
Any grade elevated AST [7]: 22%
Grade III or higher elevated ALT [7]: 4%
Grade III or higher elevated AST [7]: 2%
Dizziness [8]: 16%
Dysgeusia [8]: 18%
Ophthalmological AEs [8]: 82%
Reduced neutrophil count [8]: 12%
Intracranial ORR (ROS1-rearranged NSCLC [10]): 33%
